{"source": "patent US20120329860A1", "about": "“Uses of Beta-Nicotinamide Adenine Dinucleotide” (MEDICAL COLLEGE OF GEORGIA INSTITUTE, INC, priority 2010, published 2012)", "key": {"LPS-induced ALI in mice [1]": {"tested_on": "LPS-induced ALI in mice", "assay": "BAL total protein in LPS-induced lung injury", "format": "in vivo", "details": "β-NAD (i.v.) simultaneously with LPS (i.t.), 18 hr", "protocol": "Female C57BL/6J mice (8-10 weeks old) weighing 20-25 g were purchased from Charles River Laboratory (Wilmington, Mass.). Animals were housed in plastic cages and had access to food and water. The animals were kept at room temperature and exposed to continuous cycles of 12 hr light and darkness.\nMice were anesthetized with ketamine (150 mg/kg) and acetylpromazine (15 mg/kg) intraperitoneally (i.p.) before the exposure of the trachea via neck incision and intubation with 20-guage catheter and the right internal jugular vein was exposed via right chest incision for PBS or b-NAD installation. The mice were randomly divided into groups. […] Simultaneously, mice received either b-NAD (5.4 mg/kg, equivalent to final calculated plasma concentration […] or PBS in the control group intravenously (i.v.) through the internal jugular vein (IJ). The animals were allowed to recover for 18 hr. EBD was given through the IJ 2 hr prior to termination of the experiment. At termination, bronchoalveolar lavage (BAL) was collected. BAL was 1ml of 10% HBSS through the endotracheal catheter immediately on sacrifice with aspiration. BAL was immediately centrifuged and processed. After the BAL, ethylenediaminetetraacetic acid (EDTA) was used to flush the lungs of blood via the right heart ventricle and the lungs were then harvested. […]"}, "[2]": {"tested_on": "LPS-induced mortality in mice", "assay": "LPS-induced mortality / survival", "format": "in vivo", "protocol": "Mice were injected with β-NAD (100 mg/kg, i.p) or vehicle (saline, i.p) 10 min after LPS (20 mg/kg, i.p) challenge. As a treatment strategy, β-NAD was given twice a day (i.p) for 4 days. […]"}, "HPAEC monolayers": {"tested_on": "HPAEC monolayers", "assay": "Transendothelial electrical resistance (TER) by ECIS in HPAEC monolayers", "format": "cell-based, human", "protocol": "Human pulmonary artery endothial cells (HPAEC) and EBM-2 complete medium were purchased from Lonza (Allendale, N.J.). HPAEC were cultured according to the manufacturer's protocol and utilized at early (3-6) passages.\nThe barrier properties of endothelial cells monolayers were characterized using a highly sensitive electrical cell-substrate impedance sensing (ECIS) instrument to measure transendothelial electrical resistance (TER) as described (Birukova et al., 2004a. Microvasc Res 67(1):64-77; Kolosova et al., 2005, Circ Res 97(2):115-124). The TER data was normalized to the initial voltage."}, "Rac1": {"tested_on": "Rac1", "assay": "G-LISA Rac activation assay in HPAEC", "format": "cell-based, human", "details": "50 mM β-NAD, time course; basal by 30 min", "protocol": "(§1) Protein extracts were separated by SDS-PAGE, transferred to nitrocellulose membrane and probed with specific antibodies. Horseradish peroxidase-conjugated goat anti-rabbit IgG antibody (Santa Cruz Biotechnology, Santa Cruz, Calif.) was used as the secondary antibody, and immunoreactive proteins were detected using enhanced chemiluminescence detection kit (ECL) according to the manufacturer's protocol (Amersham, Little Chalfont, UK). For quantification, immunoblot data were analyzed using NIH Image 1.63 software. Active Rac1 was determined using G-LISA Rac activation assay according to the manufacturer's recommendations (Cytoskeleton Inc., Denver, Colo.)."}, "[3]": {"tested_on": "pro-inflammatory/anti-inflammatory cytokines gene expression", "assay": "qPCR of cytokine gene expression in lungs", "format": "in vivo", "details": "LPS/β-NAD vs LPS only mice", "protocol": "Total RNA was prepared from the lung of mouse tissue using RNeasy mini kit (Qiagen, Valencia, Calif.). The mRNA was reverse-transcribed into complementary deoxyribonucleic acid (cDNA) using iScript reagents from Bio-Rad on a programmable thermal cycler (PCR-Sprint, Thermo Electron, Milford, Mass.). 50 ng of cDNA was amplified in each real-time polymerase chain reaction using ABgene reagents (distributed by Fisher Scientific), Bio-Rad myiQ Cycler and Custom-designed primers for genes specific to the mice (Integrated DNA Technologies, Coralville, Iowa). The Reverse transcription reaction was carried out for 25 min at 42° C. and terminated for 5 min at 85° C. Real time PCR was performed by denaturation for 30 sec at 94° C., annealing for 30 sec at 60° C. for a total of 40 cycles. The glyceraldehyde-3-phosphate dehydrogenase (GAPDH) was used to normalize the expression of the target genes."}, "[4]": {"tested_on": "VE-cadherin-positive cell-cell junctions in HPAEC", "assay": "VE-cadherin immunofluorescence of HPAEC monolayers", "format": "cell-based, human", "details": "50 μM b-NAD, 30 minutes", "protocol": "Immunostaining was performed as described (Kolosova et al., 2005, Circ Res 97(2):115-124). The DNA-binding, fluorescent dye 7-amino-actinomycin D (7AAD) was used to stain cell nuclei. The percentage of total cell surface area occupied by VE-cadherin-positive cell-cell junctions was quantitatively determined using Zeiss Microscope quantification Software."}, "Myeloperoxidase (MPO)": {"tested_on": "Myeloperoxidase (MPO)", "assay": "Myeloperoxidase (MPO) activity and staining in lungs", "format": "in vivo, mice", "protocol": "MPO is a hemoprotein that is abundantly expressed in polymorphonuclear leukocytes (neutrophils) and secreted during their activation. MPO assay was carried out according to the manufacturer's assay protocol (Cayman Chemicals). Lungs of vehicle, LPS or LPS/b-NAD treated mice were used for the MPO assay. Lungs (free of blood) were weighed and snap frozen in liquid nitrogen. The left lung was weighed and homogenized in the lysis buffer and then centrifuged (12,000×g, 30 min). The protein from the clear supernatant was estimated and normalized from different treatment and analyzed for the MPO levels by ELISA. Values represent mean±SEM (n=3)."}, "LPS-induced ALI in mice [5]": {"tested_on": "LPS-induced ALI in mice", "assay": "BAL cell count", "format": "in vivo", "protocol": "Mice were anesthetized with ketamine (150 mg/kg) and acetylpromazine (15 mg/kg) intraperitoneally (i.p.) before the exposure of the trachea via neck incision and intubation with 20-guage catheter and the right internal jugular vein was exposed via right chest incision for PBS or b-NAD installation. The mice were randomly divided into groups. LPS or sterile saline was instilled intratracheally (i.t.) via a 20-gauge catheter. Simultaneously, mice received either b-NAD (5.4 mg/kg, equivalent to final calculated plasma concentration […] or PBS in the control group intravenously (i.v.) through the internal jugular vein (IJ). The animals were allowed to recover for 18 hr. EBD was given through the IJ 2 hr prior to termination of the experiment. At termination, bronchoalveolar lavage (BAL) was collected. BAL was 1ml of 10% HBSS through the endotracheal catheter immediately on sacrifice with aspiration. BAL was immediately centrifuged and processed. After the BAL, ethylenediaminetetraacetic acid (EDTA) was used to flush the lungs of blood via the right heart ventricle and the lungs were then harvested. BAL and lungs were collected and stored at −70° C. for evaluation of lung injury. […]"}, "[6]": {"tested_on": "myosin light chain (MLC) phosphorylation", "assay": "MLC phosphorylation immunoblot in LPS-treated HPAEC", "format": "cell-based, human", "details": "LPS/β-NAD mixture, 4 hrs", "protocol": "as §1"}}, "note": "“Also recorded” adds a separate entry of the source."}
{"smiles": "NC(=O)C1=CN([C@@H]2O[C@H](COP(=O)(O)OP(=O)(O)OC[C@H]3O[C@@H](n4cnc5c(N)ncnc54)[C@H](O)[C@@H]3O)[C@@H](O)[C@H]2O)C=CC1", "note": "[β-NAD, beta-nicotinamide adenine dinucleotide]", "values": [{"measurement": "LPS-induced BAL protein accumulation", "setting": "LPS-induced ALI in mice [1]", "result": "significantly attenuated"}, {"measurement": "mortality, LPS vs. LPS/β-NAD", "setting": "[2]; 15 day study", "result": "significantly reduced morality"}, {"measurement": "survival after LPS challenge", "setting": "[2]; LPS 20 mg/kg i.p., β-NAD 100 mg/kg i.p. twice a day, 4 days", "result": "recovered and lived longer"}, {"measurement": "survival, β-NAD alone", "setting": "[2]; β-NAD alone, no LPS", "result": "no effect"}, {"measurement": "thrombin-induced endothelial cell permeability (TER)", "setting": "HPAEC monolayers; 100 nM thrombin in mixture with 50 mM b-NAD", "result": "significantly attenuated the thrombin-induced endothelial cell permeability"}, {"measurement": "decrease in TER from base line", "setting": "HPAEC monolayers; LPS (100 ng/ml) with β-NAD added", "result": "~30", "unit": "%"}, {"measurement": "PLY-induced loss of monolayer integrity (TER)", "setting": "HPAEC monolayers; PLY in a mixture with 50 mM β-NAD", "result": "failed to produce such drastic effect"}, {"measurement": "TER of HPAEC monolayers (endothelial barrier function)", "setting": "HPAEC monolayers; b-NAD alone, quiescent HPAEC, 10-100 mM as printed", "result": "positive effect; also recorded: significant initial increase in TER"}, {"measurement": "β-NAD effect on TER after cytochalasin B", "setting": "HPAEC monolayers; cytochalasin B pretreatment 30 min, then 50 μM β-NAD", "result": "did not increase the TER"}, {"measurement": "β-NAD effect on TER after nocodazole", "setting": "HPAEC monolayers; nocodazole pretreatment 30 min, then 50 μM β-NAD", "result": "restored endothelial cell barrier integrity"}, {"measurement": "Rac1 activation", "setting": "Rac1", "result": "dramatic β-NAD-dependent activation of Rac1 at early time points"}, {"measurement": "anti-inflammatory cytokines (IL-4, IL-10, and IL-13) gene expression in lungs", "setting": "[3]", "result": "elevated"}, {"measurement": "proinflammatory cytokines (IL-1α, IL-1β, IFN-γ and TNF-α) gene expression in lungs", "setting": "[3]", "result": "substantially or markedly downregulated"}, {"measurement": "VE-cadherin recruitment to cell-cell junctions", "setting": "[4]", "result": "Appreciably more VE-cadherin was recruited to the area of cell-cell junctions"}, {"measurement": "percentage of total cell-surface area occupied by VE-cadherin-positive cell-cell junctions (mean)", "setting": "[4]; 20 cells per group, control 17.42%", "result": 61.03, "unit": "%"}, {"measurement": "MPO staining of lung sections (neutrophil infiltration)", "setting": "Myeloperoxidase (MPO); LPS with β-NAD treatment", "result": "attenuated the LPS-induced myeloperoxidase"}, {"measurement": "MPO activity in lungs", "setting": "Myeloperoxidase (MPO); LPS/b-NAD vs LPS challenged mice", "result": "attenuated MPO activity"}, {"measurement": "MPO activity in lungs, β-NAD alone", "setting": "Myeloperoxidase (MPO); β-NAD alone, no LPS", "result": "no effect"}, {"measurement": "total WBCs in BAL fluid", "setting": "LPS-induced ALI in mice [5]; LPS treated mice, BAL at 24 hr", "result": "reduced total WBCs in BAL fluid"}, {"measurement": "neutrophil count of BAL fluid", "setting": "LPS-induced ALI in mice [5]; LPS/b-NAD compared to LPS only treated mice", "result": "decrease in neutrophil count"}, {"measurement": "LPS-stimulated MLC phosphorylation", "setting": "[6]", "result": "significantly inhibited"}]}
